In paper PMC5913127 (Scientific Reports, 2018):

Assays:
aducanumab = experiment: ELISA of aducanumab on plates coated with truncated Aβ peptides; format: binding, human; conditions: for EC50: aducanumab on peptide coated or captured at 5 μg/mL (multivalent effects), antibody from 100 nM, 2 h room temperature, read-out: Binding activity (EC50); for Fold reduction (relative to Aβ1-42): reduction of aducanumab binding affinity, peptide 5 μg/mL
Method: For N-terminally truncated Aβ peptides, untagged peptides were used. For ELISA, 96-well microplates were coated with 5 μg/mL peptide in Coating Buffer (15 mM Na2CO3, 35 mM NaHCO3, pH 9.6) overnight at 4 °C. Plates were washed and non-specific binding sites were blocked with 2% BSA in PBS for 1 h at 25 °C. Serially diluted antibody starting from 100 nM in Assay Buffer (2% BSA in PBS) was added, and the plates were incubated for 2 h at room temperature. Binding was determined by incubation with an HRP-conjugated goat anti-human polyclonal antibody (Jackson ImmunoResearch) followed by measurement of HRP activity using Ultra TMB ELISA Colorimetric Substrate Solution (Thermo Fisher Scientific). For C-terminally truncated Aβ peptides, biotin-conjugated peptides were used. The biotin was attached synthetically to the C terminus of the protein by incorporation of a non-native lysine residue. For ELISA, biotin-conjugated peptides were incubated for 1 h at room temperature, at a concentration of 5 μg/mL in Assay Buffer, using plates that were pre-coated with neutravidin (Thermo Fisher Scientific, Reacti-Bind plates). Plates were washed, antibodies diluted serially in Assay Buffer were added, and binding was measured as described above.

Aβ (Monomer, Aggregate) = conditions: A = aggregate, M = monomer; ref [9]–[19],[54] as given per antibody in column Ref. of Table 1; cited from earlier work

Substance	EC50 (aducanumab) [nM]	Fold reduction (relative to Aβ1-42) (aducanumab) [fold]	Fold reduction (relative to Aβ1-42) (aducanumab; listed as Aβ5-42) [fold]	Aβ selectivity (Monomer, Aggregate) (Aβ (Monomer, Aggregate))
5–42: untagged N-terminally truncated Aβ peptide	36	96	> 40	–
6–42: untagged N-terminally truncated Aβ peptide	140	390	–	–
8–42: untagged N-terminally truncated Aβ peptide	150	400	–	–
solanezumab: anti-Aβ clinical candidate antibody; mouse analog m266	–	–	–	M ≫ A
